In patent publication US20210009542A1 (Calico Life Sciences LLC, priority 2018, published 2021):
Read-outs that look alike come from different tables or passages of the source.

What was measured:
[1] = tested on: Pan T cells isolated from C57BL6 splenocytes; test: T cell activation assay (flow cytometry, CD25/CD69 on CD8 T cells); type: cell-based, mouse; details: for % CD25 within CD8+ / % CD69 within CD8+ / CD25 MFI / CD69 MFI: 30 μM compound, 2 days; for T cell activation and T cell function: with TCR stimulation
Experimental: Pan T cells were isolated from C57BL6 splenocytes using a MACS Pan T cell isolation kit II (Miltenyi Biotec, Auburn, Calif.) according to the manufacturer's instructions. Isolated T cells (200,000 cells/well in a 96 well flat-bottom plate) were cultured in RPMI 1640 supplemented with 10% FBS, […] 2-mercatoethanol, 100 U/mL penicillin, and 100 μg/mL streptomycin, and incubated with the indicated concentration of compound or DMSO in duplicates. After 1 hour, mouse T cell activator CD3/CD28 Dynabeads (ThermoFisher Scientific, Waltham, Mass.) were added at a 1:5 beads to cells ratio to stimulate the T cells for 2 or 3 days as outlined below. T cells with or without compound were incubated in the absence of T cell activator beads (media only) as control.
After 2 days of stimulation, activation status of T cells was assessed by flow cytometry. T cells were first subjected to Zombie Violet™ Fixable Viability dye (BioLegend, San Diego, Calif.) for dead cell exclusion, washed and then stained with BUV805 labeled anti-CD8, APC-R700 labeled anti-CD25 (both from BD Biosciences, San Jose, Calif.) and PE labeled anti-CD69 (BioLegend, San Diego, Calif.) antibodies. After staining, cells were fixed with 2% paraformaldehyde and acquired on a BD LSRFortessa™ X-20 flow cytometer (BD Biosciences, San Jose, Calif.) using BD FACSDiva™ software. Data was analyzed using FlowJo V10 (Flow Jo LLC, Ashland, Oreg.). Dead cells were excluded and frequencies of activated CD8 T cells was reported as the frequency of CD25+ or CD69+ cells within the CD8+ population. The expression level of CD25 and CD69 indicates the activation status of cells on a per cell basis and was evaluated by the mean fluorescence intensities (MFI) of CD25 and CD69.

[2] = tested on: B16F10 mouse melanoma cells; test: B16F10 IFNγ-induced cellular growth inhibition assay; type: cell-based; details: for inhibition at 33 µM: Mus musculus, B16-F10
Procedure, shortened: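 Live-cell imaging of confluence every 6 h over 5 days at 37 °C tracked growth of mouse B16F10 melanoma cells seeded overnight at 500/well. Semi-log compound series (final 100–0.001 μM, 0.1% DMSO) ran in both arms, ±IFNγ at 0.5 ng/mL final; inhibition taken relative to DMSO plus IFNγ when IFNγ-free DMSO wells passed 95% confluence.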

pSTAT5 in CD3+ T cells = test: pSTAT5 flow cytometry assay in mouse whole blood; type: in vivo; details: 300 mg/kg/dose oral BID; day 8 of dosing, 2 hours post 16th dose; 100 ng/mL murine IL-2
Experimental: Whole blood was drawn into EDTA powder coated tubes by cardiac puncture from mice on day 8 of dosing with indicated PTPN2/1B inhibitor (2 hours after the 16th dose). 100 μL of whole blood were stimulated with 100 ng/mL murine IL-2 (R&D Systems, Minneapolis, Minn., cat #402-ML) for 20 minutes at 37° C., 5% CO2. After stimulation, 1.8 mL of prewarmed BD Phosflow Lyse/Fix Buffer (BD Biosciences, San Jose, Calif.) was added for 20 minutes at 37° C. Cells were washed twice in FACS buffer (Dulbecco's PBS with 0.2% BSA) and incubated for 30 minutes on ice in cold Perm Buffer III (BD Biosciences, San Jose, Calif.). Cells were washed with FACS buffer and resuspended in […] of FACS buffer with antibodies and stained for 3 hours at room temperature with gentle shaking. […] After staining, cells were washed twice with FACS buffer, and the samples were acquired on a BD LSRFortessa™ X20 flow cytometers (BD Biosciences, San Jose, Calif.) and analyzed with FLowJo V10 software (FlowJo, Ashland, Oreg.). The mean fluorescence intensity (MFI) of pSTAT5 as a measure of the amount of phosphorylated STAT5 in the CD3+ T cell population was reported as fold-change of compound treated over vehicle treated animal groups.

[3] = anti-CD3/anti-CD28 Dynabeads (1:5 beads:cells)
[4] = +0.5 ng/mL IFNγ, 33 μM compound, relative to DMSO control, read-out: % B16F10 growth inhibition (+0.5 ng/mL IFNγ) @ 33 μM
[5] = no IFNγ, 33 μM compound, read-out: % B16F10 growth inhibition (no IFNγ) @ 33 μM

Row | SMILES | % CD25 within CD8+ [1, 3] [%] | % CD69 within CD8+ [1, 3] [%] | CD25 MFI [1, 3] | CD69 MFI [1, 3] | % CD25 within CD8+ ([1]; no TCR stimulation) [%] | % CD69 within CD8+ ([1]; no TCR stimulation) [%] | CD25 MFI ([1]; no TCR stimulation) | CD69 MFI ([1]; no TCR stimulation) | T cell activation and T cell function [1] | inhibition at 33 µM [2, 4] [%] | inhibition at 33 µM [2, 5] [%] | pSTAT5 level in CD3+ T cells from IL2 stimulated whole blood [fold increase over vehicle] (pSTAT5 in CD3+ T cells) [fold] | inhibition at 33 µM ([2]; 33 μM, in the presence of IFNγ, read-out: growth inhibition in the presence of IFNγ compared to DMSO controls) [%] | % B16F10 growth inhibition (+0.5 ng/mL IFNγ) @ 33 μM ([2]; Table 4, +0.5 ng/mL IFNγ, 33 μM) | % B16F10 growth inhibition (no IFNγ) @ 33 μM ([2]; Table 4, no IFNγ, 33 μM) | growth inhibition in the absence of IFNγ ([2]; absence of IFNγ)
1 | CC(C)(O)CCOc1ccc2cc(O)c(N3CC(=O)NS3(=O)=O)c(F)c2c1 [Compound 182, 5-[1-fluoro-3-hydroxy-7-(3-hydroxy-3-methylbutoxy)naphthalen-2-yl]-1λ^6,2,5-thiadiazolidine-1,1,3-trione] | 29.20 | 61.90 | 741 | 1601.5 | 1.17 | 0.45 | 72.4 | 18.3 | increased both T cell activation and T cell function | 60 to 90 | < 25 |  |  |  |  | 
2 | COc1ccc2cc(O)c(N3CC(=O)NS3(=O)=O)c(F)c2c1 [Compound 124, 5-(1-fluoro-3-hydroxy-7-methoxynaphthalen-2-yl)-1λ^6,2,5-thiadiazolidine-1,1,3-trione] | 32.55 | 61.90 | 846.5 | 1421.5 | 0.39 | 0.23 | 57.05 | 28.1 | increased both T cell activation and T cell function | 60 to 90 | < 25 | 2.3 | 60 to 90 | B (a percent growth inhibition of 60-90%) | D (a percent growth inhibition of <25%) | no observed growth inhibition
